The values below come from patent publication US20250304952A1, “DNA ELEMENT RESPONSIVE TO EXTRACHROMOSOMAL DNA IN CANCER CELLS” (The Board of Trustees of the Leland Stanford Junior …, priority 2021, published 2025).

Assay [1] relates to ecDNA hubs in COLO320-DM. The assay is described as follows: ecDNA clustering by interphase DNA FISH, autocorrelation g(r). It counts as cell-based, human. The note with it: 6 hours. An excerpt: The Oligopaint FISH probe libraries were constructed as described previously 51 Each oligo consists of a 40 nucleotide (nt) homology to the hg19 genome assemble designed from the algorithm developed from the laboratory of Dr. Ting Wu (https://oligopaints.hms.harvard.edu/). Each library subpool consists of a unique sets of primer pairs for orthogonal PCR amplification and a 20 nt T7 promoter sequence for in vitro transcription and a 20 nt region for reverse transcription. Individual Oligopaint probes were generated by PCR amplification, in vitro transcription, and reverse transcription, in which ssDNA oligos conjugated with ATTO488 and ATTO647 fluorophores were introduced during the reverse transcription step. The Oligopaint covered genomic regions (hg19) used in this study are as follows: chr8: 116967673-118566852 (hg19_COLO_nonecDNA_1.5Mbp), chr8: 127435083-129017969 (hg19_COLO_ecDNA_1.5Mbp), chr8: 128729248-128831223 (hg19_PC3_ecDNA1_100 kb). A ssDNA oligo pool was ordered and synthesized from Twist Bioscience (San Francisco, CA). 15 mm #1.5 round glass coverslips (Electron Microscopy Sciences) were pre-rinsed with anhydrous ethanol for 5 min, air dried, and coated with L-poly lysine solution (100 μg/mL) for at least 2 hours. Fully dissociated ColoDM320 or PC3 cells were seeded onto the coverslips and recovered for at least 6 hours before experiments. Cells were fixed with 4% (v/v) methanol free paraformaldehyde diluted in 1×PBS at room temperature for 10 min. Then cells were washed 2× with 1×PBS and permeabilized in 0.5% Triton-X100 in 1×PBS for 30 min. After 2× wash in 1×PBS, cells were treated with 0.1M HCl for 5 min, followed by 3× washes with 2×SSC and 30 min incubation in 2×SSC+0.1% Tween20 (2×SSCT)+50% (v/v) formamide (EMD Millipore, cat #S4117). […]
To analyze the clustering of ecDNAs, we applied the autocorrelation function as described previously58 in Matlab (2019). g(r) estimates the probability of detecting another ecDNA signal at increasing distances from the viewpoint of an index ecDNA signal and is equal to 1 for a uniform, random distribution. Specifically, the pair auto-correlation function g(r^→) was calculated by the fast Fourier transform (FFT) method described by the equations below.
N(r^→) is the auto-correlation of a mask matrix that has the value of 1 inside the nucleus used for normalization. […] Autocorrelation functions were calculated first by converting the Cartesian coordinates to polar coordinates by Matlab cart2pol( ) function, binning by radius and by averaging within the assigned bins. […]

Assay [2] deals with MYC mRNA in COLO320-DM cells. The experiment in a line: MYC RNA measured by RT-qPCR in COLO320-DM. Format: cell-based, human. The note with it: 500 nM, 6 hours. Here is the method:
Cells were then treated for 6 hours with 500 nM JQ1 in DMSO unless otherwise indicated (Sigma-Aldrich SML1524) or an equivalent volume of DMSO.
RNA was extracted using RNeasy Plus mini Kit (QIAGEN 74136). Purified RNA was quantified by Nanodrop (Thermo Fisher). For RT-qPCR, 50 ng of RNA, 1× Brilliant II qRT-PCR mastermix with 1 μL RT/RNase block (Agilent 600825), and 200 nM forward and reverse primer were used. Each Ct value was measured using Lightcycler 480 (Roche) and each mean dCt was averaged from duplicate qRT-PCR reaction and performed in biological triplicate. Relative MYC RNA level (RT-qPCR primers MYC_exon3_fw and MYC_exon3_rv) was calculated by ddCt method compared to 18S and GAPDH controls (RT-qPCR primers GAPDH_fw, GAPDH_rv, 18S_fw, 18S_rv). P values were calculated using a Student's t-test by comparing the relative fold change of biological triplicates.
Approximately 0.6×10^6 COLO320-DM or COLO-320-HSR cells were plated in 6 well plates and cultured under standard conditions for 24 hours. Cells were then treated for 6 hours with one of the following: 500 nM JQ1 (Sigma-Aldrich SML1524), 500 nM MS645 (Sigma Aldrich SML2549), 1 μM THZ-1 (Selleck chemicals S7549), 20 μM SGC-SCP30 (Selleck chemicals S7256), 10 μM OICR-9429 (Selleck chemicals S7833), 50 μM MI-3 (Selleck chemicals S7619), 2 μM trichostatin A (Selleck chemicals S1045), or DMSO. […]
On the technique in general: Quantitative PCR measures a nucleic acid by following its amplification.

As for `OCCCCCCO` [1,6-hexanediol], the “ecDNA hub clustering (interphase DNA FISH, autocorrelation g(r))” value (from here on “ecDNA hub clustering”) in assay [1] (1% 1,6-hexanediol) is recorded as “did not affect ecDNA hubs”. On to `Cc1sc2c(c1C)C(c1ccc(Cl)cc1)=N[C@@H](CC(=O)NCCCCCCCCCCNC(=O)C[C@@H]1N=C(c3ccc(Cl)cc3)c3c(sc(C)c3C)-n3c(C)nnc31)c1nnc(C)n1-2` [MS645], for which, in assay [1] (500 nM), the “ecDNA hub clustering” value was “reduced ecDNA transcription and clustering similar to JQ1”. For the same compound, the “MYC mRNA level” value in assay [2] was “reduced ecDNA transcription and clustering similar to JQ1”. Regarding alpha-amanitin, in assay [1] (100 μg/mL alpha-amanitin), the “ecDNA hub clustering” value is “did not affect ecDNA hubs”.
